Experimental data taken from US20100160207A1, “Feedback Prodrug” (University of Georgia Research Foundation, Inc., priority 2006, published 2010).

Columns and labels:
[1] = biological target: T1, human lysosomal mannosidase (HLM) (Homo sapiens, UniProt O00754); conditions: Li et al., Chem. Bio. Chem. 2004; cited from earlier work
T1 sequence (O00754 50-1011): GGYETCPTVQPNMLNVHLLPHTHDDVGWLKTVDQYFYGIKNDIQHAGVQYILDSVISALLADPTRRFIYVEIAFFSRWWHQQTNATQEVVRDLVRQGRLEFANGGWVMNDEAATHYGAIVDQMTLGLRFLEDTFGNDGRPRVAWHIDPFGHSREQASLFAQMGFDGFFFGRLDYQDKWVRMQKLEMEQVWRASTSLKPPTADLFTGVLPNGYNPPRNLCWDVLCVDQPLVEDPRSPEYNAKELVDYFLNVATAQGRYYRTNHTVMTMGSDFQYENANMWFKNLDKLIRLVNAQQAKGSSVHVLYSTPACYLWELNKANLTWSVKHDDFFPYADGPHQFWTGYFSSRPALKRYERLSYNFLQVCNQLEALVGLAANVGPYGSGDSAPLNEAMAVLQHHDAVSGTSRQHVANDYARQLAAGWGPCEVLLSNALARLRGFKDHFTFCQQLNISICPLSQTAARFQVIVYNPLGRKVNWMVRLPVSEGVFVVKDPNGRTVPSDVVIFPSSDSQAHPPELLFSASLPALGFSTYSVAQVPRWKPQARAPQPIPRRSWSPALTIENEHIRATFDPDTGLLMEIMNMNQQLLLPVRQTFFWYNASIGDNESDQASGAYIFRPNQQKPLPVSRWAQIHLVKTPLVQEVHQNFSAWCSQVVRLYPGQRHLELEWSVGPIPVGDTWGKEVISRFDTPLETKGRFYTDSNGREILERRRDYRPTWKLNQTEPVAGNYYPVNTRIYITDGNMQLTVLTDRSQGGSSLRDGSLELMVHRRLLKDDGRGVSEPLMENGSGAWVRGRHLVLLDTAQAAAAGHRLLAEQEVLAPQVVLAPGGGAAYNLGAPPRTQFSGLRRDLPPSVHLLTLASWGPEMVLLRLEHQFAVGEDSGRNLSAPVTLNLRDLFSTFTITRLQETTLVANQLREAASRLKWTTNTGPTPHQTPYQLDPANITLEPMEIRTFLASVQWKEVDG

MDAY-D2 lymphoma cells = experiment: Inhibition of cell surface polylactosamine biosynthesis (L-PHA lectin blot); type: cell-based; conditions: MDAY-D2 cells cultured for two days
Procedure: MDAY-D2 cells were cultured for 2 days in the absence (control) or presence of different concentrations of compounds 14 (a) or 15 (b). Cellular proteins (10 μg) were subjected to SDS-PAGE and polylactosamine was visualized using a fluorescein labeled L-PHA lectin (upper part figure). Fluorescence bands were scanned by laser beam densitometry, and the relative intensity depicted (lower part figure).
It is known that the metastatic MDAY-D2 lymphoma cell line over-expresses the enzyme N-acetyl glucosaminyltransferase V (GnTV) (Goss et al., Clin. Cancer Res. 1995, 1, 935). […] Subsequently, the presence of polylactosamine linked to proteins was determined by analyzing cell lysates by Western blotting using a fluorescein labeled PHA lectin (Dennis et al., Cancer Res. 1990, 50, 1867).
Cell maintenance. […] New batches of frozen cell stock were grown up every 2 months and growth morphology was evaluated.
Inhibition of cell surface polylactosamine biosynthesis. […] Protein concentrations were determined using the BCA reagent (Pierce) and cellular proteins (10 μg) were separated by SDS-PAGE using 4-20% linear gradient polyacrylamide gels (Bio-Rad). […] Fluorescence bands were imaged at 495 nm (absorbance)/520 nm (emission) and the intensity scanned by laser beam densitometry (Typhoon 9410 Imager; Amersham Biosciences).

[2] = biological target: T1, human lysosomal mannosidase (HLM); experiment: Inhibition of human lysosomal mannosidase; type: biochemical
[3] = Self-decomposition half-time of the intermediate released from prodrug 2 by Jack Bean mannosidase, followed by 1H NMR; type: physicochemical; conditions: phosphate/citrate buffer
Procedure: Next, the pH dependence of the self-fragmentation of intermediates 3 and 4 was investigated. It is well known that different organelles have different pH values. […] Golgi mannosidase II has been identified as a target for anti-metastatic therapy (Goss et al., Clin. Cancer Res. 1995, 1, 935; Elbein, FASEB J. 1991, 5, 3055), whereas inhibition of lysosomal mannosidase leads to the phenotype of lysosomal storage disease. […] Thus, compound 2 (0.4 mM) in sodium acetate buffers of different pH was treated with a large quantity (7 Units/mL) of Jack Bean α-mannosidase (JBM) to completely convert the prodrug into intermediate 4. Subsequently, the decomposition of 4 was monitored by ^1H NMR by integration of key signals of the intermediate and final product. […] The results of these experiments indicate that in a compartment such as the medial Golgi, which has a pH close to neutral, the decomposition of the intermediate will occur in minutes, which is probably fast enough for rebinding of the inhibitor.
Self-decomposition half-time measurements. A solution of compound 2 (0.08 μmol) and Jack Bean mannosidase (JBM) (1.4 Units) in deuterated 0.2 M phosphate/0.1 M citrate buffer (pH=4.0, 4.5, 5.0, 5.5, 6.0 or 6.5; 0.2 ml) was incubated at 37° C. or 25° C., and ^1H NMR spectra (600 MHz) were recorded at different time intervals. Relevant signals were integrated to determine the appearance of the intermediate 4 and the final product 6, and the decomposition rate.

[4] = biological target: T1, human lysosomal mannosidase (HLM); experiment: Enzymatic cleavage of prodrugs by human lysosomal mannosidase monitored by 1H NMR; type: biochemical; conditions: HLM 20 mU, 80 nmol compound, sodium acetate buffer pH 5.6, 37° C.
Procedure: HLM ([…]) was added to a solution of 2 (a) or 1 (b) ([…]) in a deuterated sodium acetate buffer (100 mM, pH, 5.6, 0.2 mL) and the enzymatic cleavage was monitored by ^1H NMR (600 MHz).
The enzymatic cleavage of 1 and 2 by human lysosomal mannosidase (HLM) was monitored by ^1H NMR (600 MHz) (Wilson et al., Org. Lett. 1999, 1, 443) Thus, HLM (20 mU) was added to a solution of 1 or 2 (80 nmol) dissolved in a deuterated sodium acetate buffer (100 mM, pH 5.6, 0.2 mL). The progress of the reaction was monitored by the integration of key signals of the starting material, the intermediate and final product. […] In this case, the released mannostatin A (5) inhibits HLM terminating further hydrolysis of 1. Mannostatin A is a potent inhibitor of retaining α-mannosidases (Ki=90 nM, HLM) (Li et al., Chem. Bio. Chem. 2004, 5, 1220) and thus the release of low concentrations of the active compound is sufficient to abolish enzyme activity.
Kinetic measurements. A solution of compound 1 or 2 (0.08 μmol) and human lysosomal mannosidase (HLM, 0.02 Unit) in deuterated sodium acetate buffer (0.1 M; pH 5.6; 0.2 ml) was incubated at 37° C., and ^1H NMR spectra (600 MHz) were recorded at different time intervals. Relevant signals were integrated to determine the rate of enzymatic hydrolysis, and the appearance of the intermediate and the final product.

α-glucosidase = experiment: Negative enzyme control experiment, α-glucosidase; type: biochemical; conditions: 0.1 Unit, MES buffer pH 6.8, 37° C., 20 h
Procedure: (§1) Compounds 1 and 2 were subjected to an α-glucosidase, α-fucosidase and α-galactosidase.
(§2) Negative enzyme control experiments. A solution of compound 1 or 2 (0.004 mmol) and α-glucosidase, α-galactosidase or α-L-fucosidase (0.1 Unit) in MES buffer (0.05 M; pH 6.8 for α-glucosidase, pH 6.5 for α-galactosidase or pH 5.5 for α-L-fucosidase; 1 ml) was incubated at 37° C. for 20 h, after which the reaction mixture was freezing-dried, and the solid residue was analyzed by ^1H NMR spectrometry and mass spectrometry.

α-galactosidase = experiment: Negative enzyme control experiment, α-galactosidase; type: biochemical; conditions: 0.1 Unit, MES buffer pH 6.5, 37° C., 20 h
Procedure: as §1, §2

α-L-fucosidase = experiment: Negative enzyme control experiment, α-L-fucosidase; type: biochemical; conditions: 0.1 Unit, MES buffer pH 5.5, 37° C., 20 h
Procedure: as §1, §2

[5] = Stability measurements in deuterated sodium acetate buffer by 1H NMR; type: physicochemical; conditions: 0.4 mM, sodium acetate buffer pH 4.0, 37° C., 6 days
Procedure: Stability measurements. A solution of compound 1 or 2 (0.4 mM) in deuterated sodium acetate buffer (100 mM; pH 4.0; 0.2 ml) in a NMR tube was incubated at 37° C. for 6 days. ^1H NMR spectra were recorded every day.

In the case of `CS[C@@H]1[C@@H](N)[C@@H](O)[C@@H](O)[C@H]1O` [Mannostatin A, mannostatin A], the Ki [1] is listed as 90 nM.
For `CSC1C(NC(=O)OCc2ccc(O[C@H]3O[C@H](COC(C)=O)[C@@H](OC(C)=O)[C@H](OC(C)=O)[C@@H]3OC(C)=O)cc2)C(OC(C)=O)C(OC(C)=O)C1OC(C)=O` (stereo partly drawn) [Compound 14, 1D-(1,2,3,4/5)-4-[4-(2,3,4,6-tetra-O-acetyl-α-D-mannopyranosyloxy)-benzyloxycarbonyl]amino-1,2,3-tri-O-acetyl-5-(methylsulfanyl)cyclopentane-1,2,3-triol], the “reduction in fluorescein labeling (polylactosamine)” value (MDAY-D2 lymphoma cells; 1 μM) was 50%.
In the case of `NC1C(O)C(O)C(O)C1O` (centres unmarked) [Compound 6, aminocyclopentitetrol], the “inhibition of HLM” value [2] is reported as “not an inhibitor of HLM”.
With `O=C(NC1C(O)C(O)C(O)C1O)OCc1ccc(O[C@H]2O[C@H](CO)[C@@H](O)[C@H](O)[C@@H]2O)cc1` (stereo partly drawn) [Compound 2, (1,4/2,3,5)-5-[4-(α-D-mannopyranosyloxy)-benzyloxycarbonyl]amino-1,2,3,4-cyclopentanetetrol] the half-life of self-fragmentation ([3]; pH 4.0, 25° C.) was 2800 min, the half-life of self-fragmentation ([3]; pH 4.0, 37° C.) was 480 min and the half-life of self-fragmentation ([3]; pH 4.5, 37° C.) was 270 min. The half-life of self-fragmentation ([3]; pH 5.0, 37° C.) was 100 min, the half-life of self-fragmentation ([3]; pH 5.5, 37° C.) was 45 min and the half-life of self-fragmentation ([3]; pH 6.0, 37° C.) was 16 min. The half-life of self-fragmentation ([3]; pH 6.5, 25° C.) was 45 min, the half-life of self-fragmentation ([3]; pH 6.5, 37° C.) was 9 min and the “enzymatic hydrolysis of the prodrug by HLM” value [4] was “progressed to completion”. For the same molecule, the “decomposition by α-glucosidase” value (α-glucosidase) was “No decomposition of product was observed”, the “decomposition by α-galactosidase” value (α-galactosidase) was “No decomposition of product was observed” and the “decomposition by α-L-fucosidase” value (α-L-fucosidase) was “No decomposition of product was observed”. The decomposition in buffer [5] was “No decomposition of product was observed”.
In the case of `CC(=O)OC[C@H]1O[C@H](Oc2ccc(COC(=O)NC3C(OC(C)=O)C(OC(C)=O)C(OC(C)=O)C3OC(C)=O)cc2)[C@@H](OC(C)=O)[C@@H](OC(C)=O)[C@@H]1OC(C)=O` (stereo partly drawn) [Compound 15, (1,4/2,3,5)-5-[4-(2,3,4,6-tetra-O-acetyl-α-D-mannopyranosyloxy)-benzyloxycarbonyl]amino-1,2,3,4-tetra-O-acetyl-1,2,3,4-cyclopentanetetrol], the “inhibitory activity on polylactosamine formation” value (MDAY-D2 lymphoma cells; 0.1-100 μM) is reported as “did not display any inhibitory activity”.
